The text below walks through data of patent US20230382904A1, “SUBSTITUTED 4-([1,2,4]TRIAZOLO[1,5-a]PYRIDIN-6-YL)THIOPHENE-2-CARBOXAMIDE DERIVATIVES AND USE THEREOF” (The Johns Hopkins University, priority 2020, published 2023).

The target of one assay is LZK (Homo sapiens (Human), UniProt O43283). Kind of assay: LZK biochemical assay (TR-FRET, MKK7 phosphorylation). Summed up:
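Catalytic-domain LZK (10 nM) phosphorylated His-MKK7 (15 nM) with 15 μM ATP for 90 min at RT. Phospho-T275/S277 detected by Eu-anti-phospho-MKK7/XL665-anti-His TR-FRET after 16 h at 32° C, using the 665/Eu ratio. Buffer: 50 mM Hepes pH 7.5, 10 mM MgCl2, 1 mM DTT.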
In general terms: Time-resolved FRET reads energy transfer from a long-lived donor to a nearby acceptor.

A short description of assay [1]: Ischemia/Reperfusion (I/R) rat model, optokinetic tracking. Type of assay: in vivo. The conditions noted are these: prophylactic setting, after a 20 minute ischemic event. How it is done:
The animals were placed under anesthesia (Rompun (Xylazin als Xylazinhydrochlorid) 2%, Bayer, PZN-1320422, Ketavet (Ketaminhydrochlorid) 100 mg/mL, Pfizer, PZN-3151811) and the pupil on the right eye dilated (Neosynephrin-POS 5% Augentropfen, […], PZN 0828584).
When anesthetized, local anesthetic eye drops (Alcaine, lokalanästhetische Augentropfen, Alcon, 37516058) were applied to the right eye. The rat is on the left side. After a short exposure time, a 30G cannula was inserted laterally into the anterior chamber of the eye. To do this, the eye was fixed with a cotton swab so that it emerged from the eye socket. Once the cannula was placed, the eye was carefully released. The 30G cannula was connected via infusion set to a bag of isotonic infusion solution. The infusion bag hung in a pressure cuff. The pressure was regulated via the pressure cuff and the manometer. For the model, the intraocular pressure is increased to 120 mm Hg. The duration is 20 min. If the cannula fits correctly, the eye turns white, because the blood circulation was interrupted. During treatment, the rats lied on a warm mat (level 2). It was necessary to observe the anesthetic state of the animal. […]
For the optomotry readout only the spatial resolution is measured (spatial frequency). Both eyes were measured. […]

LZK, sequence (O43283 168-409): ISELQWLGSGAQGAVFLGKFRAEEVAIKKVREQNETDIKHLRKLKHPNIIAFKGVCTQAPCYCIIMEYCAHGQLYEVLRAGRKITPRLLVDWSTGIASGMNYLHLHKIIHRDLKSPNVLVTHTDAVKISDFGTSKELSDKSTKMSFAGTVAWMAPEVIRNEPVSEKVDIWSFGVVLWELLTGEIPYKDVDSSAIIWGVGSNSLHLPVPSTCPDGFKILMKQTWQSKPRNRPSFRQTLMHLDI

On to `CC[C@H](NC(=O)c1cc(-c2cc(C(=O)N[C@@H](C)CC)c3nc(N)nn3c2)cs1)c1ccc(F)cc1` [Compound 112, 2-Amino-N-[(2S)-butan-2-yl]-6-(5-{[(1S)-1-(4-fluorophenyl)propyl]carbamoyl}thiophen-3-yl)[1,2,4]triazolo[1,5-a]pyridine-8-carboxamide], for which, at LZK, the IC50 (usually the concentration that gives 50% inhibition) is 29 nM. The same molecule gave a retained vision in assay [1] of around 80%.
